Data on 44 compounds can be found in US20240025891A1 (Celgene Corporation, priority 2020, published 2024).

Bounds are passed on as bounds.

In this assay the test system is Onchocerca gutturosa adult male worms. The experiment in a line: Onchocerciasis in vitro screening model Onchocerca gutturosa (worm motility score and MTT/formazan colorimetry). The following applies: Onchocerca gutturosa, read-out: O. gutt Act class.
Procedure: Onchocerciasis: In Vitro Screening Model Onchocerca gutturosa
Parasite and cell cultures. Onchocerca gutturosa adult male worms were obtained by dissection from the nuchal ligament connective tissues of naturally infected cattle, from Gambia, W Africa.
The worms were maintained for at least 24 h in culture before use in Eagles Minimum Essential Medium with Earl's Salts (Gibco, UK)+10% heat inactivated new born calf serum (Gibco, UK)+antibiotic cover of 200 units/ml penicillin, 200 μg/ml streptomycin and 0.5 μg/ml amphotericin B (Sigma, UK). Only normally active specimens were used in the test. All cultures and assays were conducted at 37° C. under an atmosphere of 5% CO2 in air.
Drug sensitivity assays. Compound stock solutions were prepared in 100% DMSO unless otherwise indicated and diluted into the medium. Any unused compound stocks were stored at −20° C. Assays were performed in sterile 24-well (2 ml) plates (Falcon, UK).
Worms were then transferred individually to each well of the plate using fine forceps. Worm viability was assessed using 2 parameters: • The measurement of mean worm motility scores on a scale of 0 (immotile) to 10 (maximum) every 24 h, terminating at 120 h, using an Olympus inverted microscope. • The biochemical evaluation of worm viability using MTT/formazan colorimetry. The MTT assay was carried out after the last motility reading (120 h). Single intact worms were placed in each well of a 48-well plate (Falcon, UK) containing 0.5 ml of a solution consisting of 0.5 mg/ml MTT (Sigma UK) in phosphate buffered saline, and then incubated for 30 min at 37° C. The worms were removed, blotted carefully, and individually transferred to separate wells of a 96-well microtiter plate, each containing 200 μl of DMSO to solubilize the formazan. After 1 h the plate was gently agitated to disperse the color evenly and the absorbance value (optical density) of the resulting formazan solution was determined at 490 nm using a multi-well scanning spectrophotometer (Elisa-reader, Dynatech, UK). Inhibition of formazan formation was correlated with worm damage or death.
Primary screen. New compounds were usually tested at 1.25×10^−5 M. Also expressed in μg/ml.
Secondary screen. […] Serial 1 in 4 drug dilutions was carried out to find activity endpoint and EC50 values for motility reduction and inhibition of formazan formation were produced. EC50 values were determined using Excel or Origin V7 scientific graphing and data analysis software.
As to `Cc1ccc(-c2csc(Nc3cc(C)ccn3)n2)nc1` [Example 1, N-(4-Methylpyridin-2-yl)-4-(5-methylpyridin-2-yl)thiazol-2-amine], the IC50 was under 200 nM.

With `Cc1ccnc(Nc2nc(-c3cccc(C)n3)cs2)c1` [Example 2], the IC50 lay in the range of 200 to 500 nM.

On to `COc1cccnc1-c1csc(Nc2cc(C)ccn2)n1` [Example 7], for which the IC50 is 500 to 5000 nM.

Turning to `CCOc1cccc(-c2csc(Nc3ncccc3C)n2)n1` [Example 71], the IC50 fell in the range of 500 to 5000 nM.

Take `CCOc1cccnc1-c1csc(Nc2cc(C)ccn2)n1` [Example 72, 4-(3-ethoxypyridin-2-yl)-N-(4-methylpyridin-2-yl)thiazol-2-amine]: the IC50 is under 200 nM.

Consider `CC(=O)N(C)c1cc(C(F)(F)F)cnc1Nc1nc(-c2cc(OC3COC3)ccn2)cs1` [Example 73, N-methyl-N-(2-(4-(4-(oxetan-3-yloxy)pyridin-2-yl)thiazol-2-ylamino)-5-(trifluoromethyl)pyridin-3-yl)acetamide], for which the IC50 fell in the range of 200 to 500 nM.

As for `CCOc1cnc(-c2csc(Nc3cc(C)ccn3)n2)c(C)c1` [Example 74, 4-(5-ethoxy-3-methylpyridin-2-yl)-N-(4-methylpyridin-2-yl)thiazol-2-amine], the IC50 is under 200 nM.

Turning to `CCOc1cnc(-c2csc(Nc3ncccc3C)n2)c(C)c1` [Example 75, 4-(5-ethoxy-3-methylpyridin-2-yl)-N-(3-methylpyridin-2-yl)thiazol-2-amine], the IC50 was under 200 nM.

As for `CC(=O)N(C)c1cc(C(F)(F)F)cnc1Nc1nc(-c2cc3c(cn2)N(C)CC3)cs1` [Example 76, N-methyl-N-(2-(4-(1-methyl-2,3-dihydro-1H-pyrrolo[2,3-c]pyridin-5-yl)thiazol-2-ylamino)-5-(trifluoromethyl)pyridin-3-yl)acetamide], the IC50 was under 200 nM.

As to `CCOc1cccnc1-c1csc(Nc2ncccc2C)n1` [Example 77, 4-(3-ethoxypyridin-2-yl)-N-(3-methylpyridin-2-yl)thiazol-2-amine], the IC50 is under 200 nM.

In the case of `CCOc1cccc(-c2csc(Nc3cc(C)ccn3)n2)n1` [Example 78, 4-(6-ethoxypyridin-2-yl)-N-(4-methylpyridin-2-yl)thiazol-2-amine], the IC50 fell in the range of 500 to 5000 nM.

As to `CCOc1ccc(-c2csc(Nc3ncc(F)cc3C)n2)nc1` [Example 79, 4-(5-ethoxypyridin-2-yl)-N-(5-fluoro-3-methylpyridin-2-yl)thiazol-2-amine], the IC50 is under 200 nM.

Consider `CSc1ccc(-c2csc(Nc3ncccc3C)n2)nc1` [Example 80, N-(3-methylpyridin-2-yl)-4-(5-(methylthio)pyridin-2-yl)thiazol-2-amine], for which the IC50 was under 200 nM.

Turning to `CCOc1ccc(-c2csc(Nc3ccc(C)cn3)n2)nc1` [Example 81, 4-(5-ethoxypyridin-2-yl)-N-(5-methylpyridin-2-yl)thiazol-2-amine], the IC50 is under 200 nM.

With `CC(=O)N(C)c1cc(C(F)(F)F)cnc1Nc1nc(-c2cc(OC(C)C)ccn2)cs1` [Example 82, N-(2-(4-(4-isopropoxypyridin-2-yl)thiazol-2-ylamino)-5-(trifluoromethyl)pyridin-3-yl)-N-methylacetamide], the IC50 is under 200 nM.

On to `CCOc1ccc(-c2csc(Nc3ncccc3C3CC3)n2)nc1` [Example 83, N-(3-cyclopropylpyridin-2-yl)-4-(5-ethoxypyridin-2-yl)thiazol-2-amine], for which the IC50 was 200 to 500 nM.

As for `CCOc1ccc(-c2csc(Nc3ncc(C(F)(F)F)cc3C)n2)nc1` [Example 84, 4-(5-ethoxypyridin-2-yl)-N-(3-methyl-5-(trifluoromethyl)pyridin-2-yl)thiazol-2-amine], the IC50 lay in the range of 200 to 500 nM.

As to `CCOc1ccc(-c2csc(Nc3ccc(Cl)cn3)n2)nc1` [Example 85, N-(5-chloropyridin-2-yl)-4-(5-ethoxypyridin-2-yl)thiazol-2-amine], the IC50 is 200 to 500 nM.

With `CCOc1ccc(-c2csc(Nc3nc(C)ccc3C)n2)nc1` [Example 86, N-(3,6-dimethylpyridin-2-yl)-4-(5-ethoxypyridin-2-yl)thiazol-2-amine], the IC50 is under 200 nM.

With `CCOc1ccc(Nc2nc(-c3ccc(OCC)cn3)cs2)nc1` [Example 87, N,4-bis(5-ethoxypyridin-2-yl)thiazol-2-amine], the IC50 is under 200 nM.

Take `CCOc1ccc(-c2csc(Nc3ncc(C)cc3C)n2)nc1` [Example 88, N-(3,5-dimethylpyridin-2-yl)-4-(5-ethoxypyridin-2-yl)thiazol-2-amine]: the IC50 was under 200 nM.

As for `Cc1ccnc(Nc2nc(-c3ccc(Cl)cn3)cs2)c1` [Example 89, 4-(5-chloropyridin-2-yl)-N-(4-methylpyridin-2-yl)thiazol-2-amine], the IC50 fell in the range of 200 to 500 nM.

`CCOc1ccc(-c2csc(Nc3cccc(C)n3)n2)nc1` [Example 90, 4-(5-ethoxypyridin-2-yl)-N-(6-methylpyridin-2-yl)thiazol-2-amine]: the IC50 was under 200 nM.

Regarding `CCOc1ccc(-c2csc(Nc3cc(C)ccn3)n2)nc1` [Example 91, 4-(5-ethoxypyridin-2-yl)-N-(4-methylpyridin-2-yl)thiazol-2-amine], the IC50 is under 200 nM.

Take `Cc1ccnc(Nc2nc(-c3ncccc3C#N)cs2)c1` [Example 92, 2-(2-(4-methylpyridin-2-ylamino)thiazol-4-yl)nicotinonitrile]: the IC50 was under 200 nM.

As to `CC(=O)N(C)c1cc(C(F)(F)F)cnc1Nc1nc(-c2ccc(OC(C)C)cn2)cs1` [Example 93, N-(2-(4-(5-isopropoxypyridin-2-yl)thiazol-2-ylamino)-5-(trifluoromethyl)pyridin-3-yl)-N-methylacetamide], the IC50 is under 200 nM.

As to `Cc1cccnc1Nc1nc(-c2ccc(Cl)cn2)cs1` [Example 94, 4-(5-chloropyridin-2-yl)-N-(3-methylpyridin-2-yl)thiazol-2-amine], the IC50 is under 200 nM.

In the case of `CCOc1ccc(-c2csc(Nc3ccc(C(F)(F)F)cn3)n2)nc1` [Example 95, 4-(5-ethoxypyridin-2-yl)-N-(5-(trifluoromethyl)pyridin-2-yl)thiazol-2-amine], the IC50 is under 200 nM.

As to `COc1ccnc(-c2csc(Nc3ncc(C(F)(F)F)cc3N(C)C(C)=O)n2)c1` [Example 96, N-(2-(4-(4-methoxypyridin-2-yl)thiazol-2-ylamino)-5-(trifluoromethyl)pyridin-3-yl)-N-methylacetamide], the IC50 fell in the range of 200 to 500 nM.

Turning to `Cc1cc(C(F)(F)F)cnc1Nc1nc(-c2cc3c(cn2)N(C)CC3)cs1` [Example 97, 4-(1-methyl-2,3-dihydro-1H-pyrrolo[2,3-c]pyridin-5-yl)-N-(3-methyl-5-(trifluoromethyl)pyridin-2-yl)thiazol-2-amine], the IC50 is under 200 nM.

Consider `Cc1ccnc(Nc2nc(-c3cc(OC4CN(C)C4)ccn3)cs2)c1` [Example 98, 4-(4-(1-methylazetidin-3-yloxy)pyridin-2-yl)-N-(4-methylpyridin-2-yl)thiazol-2-amine], for which the IC50 was under 200 nM.

In the case of `Cc1ccnc(-c2csc(Nc3ncccc3-c3ccccc3)n2)c1` [Example 99, 4-(4-methylpyridin-2-yl)-N-(3-phenylpyridin-2-yl)thiazol-2-amine], the IC50 is 500 to 5000 nM.

Regarding `Cc1cccnc1-c1csc(Nc2cc(-c3ccccc3)ccn2)n1` [Example 100, 4-(3-methylpyridin-2-yl)-N-(4-phenylpyridin-2-yl)thiazol-2-amine], the IC50 is under 200 nM.

For the compound `Cc1ccnc(Nc2nc(-c3cc(-c4ccccc4)ccn3)cs2)c1` [Example 101, N-(4-methylpyridin-2-yl)-4-(4-phenylpyridin-2-yl)thiazol-2-amine], the IC50 was under 200 nM.

`Cc1ccnc(Nc2nc(-c3cc(OC4COC4)ccn3)cs2)c1` [Example 102, N-(4-methylpyridin-2-yl)-4-(4-(oxetan-3-yloxy)pyridin-2-yl)thiazol-2-amine]: the IC50 is under 200 nM.

Take `Cc1ccnc(Nc2nc(-c3ncccc3-c3ccccc3)cs2)c1` [Example 103, N-(4-methylpyridin-2-yl)-4-(3-phenylpyridin-2-yl)thiazol-2-amine]: the IC50 is under 200 nM.

Turning to `FC(F)(F)c1ccnc(Nc2nc(-c3ccc(OC4CCOCC4)cn3)cs2)c1` [Example 104, 4-(5-(tetrahydro-2H-pyran-4-yloxy)pyridin-2-yl)-N-(4-(trifluoromethyl)pyridin-2-yl)thiazol-2-amine], the IC50 is under 200 nM.

`Cc1sc(Nc2cc(C(=O)NCC(F)(F)F)ccn2)nc1-c1ccc(OC2CCOCC2)cn1` [Example 106, 2-(5-methyl-4-(5-(tetrahydro-2H-pyran-4-yloxy)pyridin-2-yl)thiazol-2-ylamino)-N-(2,2,2-trifluoroethyl) isonicotinamide]: the IC50 was 200 to 500 nM.

In the case of `Cc1ccnc(Nc2nc(-c3ncccn3)cs2)c1` [Example 107, N-(4-methylpyridin-2-yl)-4-(pyrimidin-2-yl)thiazol-2-amine], the IC50 is 500 to 5000 nM.

Regarding `CC(=O)N(C)c1cc(C(F)(F)F)cnc1Nc1nc(-c2cc3n(n2)CCC3)cs1` [Example 108, N-(2-(4-(5,6-dihydro-4H-pyrrolo[1,2-b]pyrazol-2-yl)thiazol-2-ylamino)-5-(trifluoromethyl)pyridin-3-yl)-N-methylacetamide], the IC50 is under 200 nM.

For the compound `Fc1ccc(-c2csc(Nc3cc(C(F)(F)F)c(Br)cn3)n2)nc1` [Example 109, N-(5-bromo-4-(trifluoromethyl)pyridin-2-yl)-4-(5-fluoropyridin-2-yl)thiazol-2-amine], the IC50 was in the range of 200 to 500 nM.

`Cc1ccnc(Nc2nc(-c3ncccc3C)c(-c3ccccc3)s2)c1` [Example 110, 4-(3-methylpyridin-2-yl)-N-(4-methylpyridin-2-yl)-5-phenylthiazol-2-amine]: the IC50 fell in the range of 500 to 5000 nM.

Take `Cc1cccnc1Nc1cnc(-c2ccc(OC3CCOCC3)cn2)s1` [Example 111, N-(3-methylpyridin-2-yl)-2-(5-(tetrahydro-2H-pyran-4-yloxy)pyridin-2-yl)thiazol-5-amine]: the IC50 is under 200 nM.

Consider `c1ccc(-c2ccnc(Nc3cnc(-c4ccccn4)s3)c2)cc1` [Example 112, N-(4-phenylpyridin-2-yl)-2-(pyridin-2-yl)thiazol-5-amine], for which the IC50 lay in the range of 200 to 500 nM.
